{"source": "patent US9408395B2", "about": "“Process for potentiating the production of Lingzhi mushroom (Ganoderma lucidum) substances and antifungal activity thereof” (UNIVERSIDAD DE ANTIOQUIA (UDEA), priority 2013, dated 2016)", "key": {"Mycosphaerella fijiensis [1]": {"system": "Mycosphaerella fijiensis", "experiment": "Mycelium growth inhibition in microplate format, protein extracts", "assay_type": "cell-based", "conditions": "0.3 ppm", "experimental": "In order to obtain protein extracts, the optimized protein extraction protocol was followed (Item 4.1.2). Later, the protein pellet was re-suspended in 1 ml PBS pH 7.4 buffer, 200 μL DMSO and 200 μL glycerol. The protein extracts of each LED were quantified by the Bradford method (Bio-Rad Protein Assay®) (61). […] The extracts were diluted in pH 7.4 PBS phosphate buffer.\nThe Mycosphaerella fijiensis-inoculated microplates and also treated with the different extracts were incubated. Readings were performed according to the Standard Norm. Each concentration was assayed in three repetitions, including three experiment replicas (63, 64). Thereafter, the determination of the growth inhibition percentage for each concentration of each protein extract used was performed (65-67).\nThrough the use of logic models (non linear regressions) the relationship between the concentration logarithm of each antifungal (x axis) versus inhibition percentage (y axis) was established thus obtaining the respective equations, for EC50 analysis for each treatment at 5 concentrations, in order to determine the necessary concentration of each extract to reduce the population growth by 50% at an in vitro level.\nIn order to determine which the best protein extract for Mycosphaerella fijiensis mycelium growth inhibition was, a statistical analysis using a category factorial design was performed. […]"}, "Mycosphaerella fijiensis [2]": {"system": "Mycosphaerella fijiensis", "experiment": "Agar diffusion assay (plate diffusion method)", "assay_type": "cell-based", "conditions": "compared to other treatments and growth control", "protocol": "In order to corroborate antifungal activity of each extract, said activity was assayed in Petri dishes using the plate diffusion method; for said purpose, 20 ml of PDA medium were dispensed for a final thickness of 4 mm. After homogenizing inocula, deep plating was performed wherein each plate was inoculated using 2×10^4 Mycosphaerella fijiensis mycelium fragments. Afterwards, using a 0.5 mm internal diameter punch, wells were made wherein 10 or 20 μL of each extract were deposited, in addition to the inhibition positive control using Mancozeb and a negative control using a 1:1 ethanol:DMSO mix. The plates were incubated in darkness conditions, 25±1° C. for seven days."}}, "data": [{"substance": "Mancozeb", "values": [{"measurement": "Inhibition of Mycosphaerella fijiensis growth", "setting": "Mycosphaerella fijiensis [1]", "result": 72, "unit": "%"}, {"measurement": "Mycelium growth inhibition (in words)", "setting": "Mycosphaerella fijiensis [2]", "result": "entirely inhibited"}]}]}
